The target in one data set is NAV1.5 (Homo sapiens, UniProt Q14524). Kind of data set: in vitro. It counts as cell-based. The note with it: up to 30 µM. Here is the method:
Ion Channel Assays: Cell lines were grown, plated, and loaded with 1× loading buffer containing 1× dye and 2.5 mM freshly prepared probenecid. Assays were performed, and activity was measured using a FLIPR Tetra. Percent of activation and percent of inhibition were calculated to determine agonist and antagonist activity, respectively. […]
The KINOMEscan screening platform employs a novel and propri- Membrane Potential Assay etary active site-directed competition binding assay to quantitatively The FLIPR® Membrane Potential Assay Kit is used which utilizes a pro-measure interactions between test compounds and the kinases. prietary fluorescent indicator dye in combination with a quencher to This robust and reliable assay technology affords investigators the reflect real-time membrane potential changes associated with ion ability to extensively annotate compounds with accurate, precise channel activation and ion transporter proteins. […]
Compounds that bind the kinase active site and directly (sterically) be monitored within a single experiment. […]
Upon stimulation, […]
a quantitative, precise and ultra-sensitive qPCR method that detects the receptor signals release of intracellular calcium, which results in the associated DNA label (D). In a similar manner, dissociation con- an increase of dye fluorescence. […]
1. Compound activity was measured on a FLIPR Tetra (MDS). […]

Data set [1] deals with seventy-eight protein channels. Kind of data set: Eurofins SAFETYscan E/IC50 ELECT (all seventy-eight assays). The note with it: CTP 0.1 µM to 30 µM. As for the experimental part: Eurofins Toxicology Study: In vitro toxicology studies were performed by Eurofins Scientific through both their Ion Channel Profiler and Cardiac Profiler Panel and their DiscoverX’s SAFETYscan E/IC50 […] service. Increasing concentrations of CTP (0.1 µM to 30 µM) were tested against various ion channels and a total of seventy-eight assays performed utilizing various output reads, including GPCR cAMP modulation assays, calcium mobilization assays, nuclear hormone receptor assays, KINOMEscan binding assays, ion channel assays, transporter assays, and enzymatic assays. All methods described below were performed, described, and reported by Eurofins Scientific in their study report (Supplementary Methods S1 and S2).
GPCR cAMP modulation assays, calcium mobilization assays, nuclear hormone receptor assays, KINOMEscan binding assays, ion channel assays, transporter assays, and enzymatic assays were performed by Eurofins under GLP standards.
DiscoverX was contracted by Maliha Zahid at Mayo Clinic to profile 1 compound(s) with the SAFETYscan E/IC50 ELECT service. Details are
Product: SAFETYscan E/IC50 ELECT
ADOR A2A- Calci um Flux-Agonist DRD2S-cAMP-Agonist HTR3A-Ion Channel-Blocker
ADORA2A-Calcium Flux-Antagonist DRD2S-cAMP-Antagonist HTR3A-Ion Channel-Opener
ADRA1A-Calcium Flux-Agonist EDNRA-Calcium Flux-Agonist KvLQT1/minK-Ion Channel-Blocker […]

“Also recorded” adds a separate entry of the source. Ends that are not written are not given here. A value given as a limit tells only on which side of the number the result lay.

Results on one sequence are retold here after PMC10818749, “Toxicity Studies of Cardiac-Targeting Peptide Reveal a Robust Safety Profile” (Pharmaceutics, 2024).

Chain of NAV1.5 (Q14524 whole entry): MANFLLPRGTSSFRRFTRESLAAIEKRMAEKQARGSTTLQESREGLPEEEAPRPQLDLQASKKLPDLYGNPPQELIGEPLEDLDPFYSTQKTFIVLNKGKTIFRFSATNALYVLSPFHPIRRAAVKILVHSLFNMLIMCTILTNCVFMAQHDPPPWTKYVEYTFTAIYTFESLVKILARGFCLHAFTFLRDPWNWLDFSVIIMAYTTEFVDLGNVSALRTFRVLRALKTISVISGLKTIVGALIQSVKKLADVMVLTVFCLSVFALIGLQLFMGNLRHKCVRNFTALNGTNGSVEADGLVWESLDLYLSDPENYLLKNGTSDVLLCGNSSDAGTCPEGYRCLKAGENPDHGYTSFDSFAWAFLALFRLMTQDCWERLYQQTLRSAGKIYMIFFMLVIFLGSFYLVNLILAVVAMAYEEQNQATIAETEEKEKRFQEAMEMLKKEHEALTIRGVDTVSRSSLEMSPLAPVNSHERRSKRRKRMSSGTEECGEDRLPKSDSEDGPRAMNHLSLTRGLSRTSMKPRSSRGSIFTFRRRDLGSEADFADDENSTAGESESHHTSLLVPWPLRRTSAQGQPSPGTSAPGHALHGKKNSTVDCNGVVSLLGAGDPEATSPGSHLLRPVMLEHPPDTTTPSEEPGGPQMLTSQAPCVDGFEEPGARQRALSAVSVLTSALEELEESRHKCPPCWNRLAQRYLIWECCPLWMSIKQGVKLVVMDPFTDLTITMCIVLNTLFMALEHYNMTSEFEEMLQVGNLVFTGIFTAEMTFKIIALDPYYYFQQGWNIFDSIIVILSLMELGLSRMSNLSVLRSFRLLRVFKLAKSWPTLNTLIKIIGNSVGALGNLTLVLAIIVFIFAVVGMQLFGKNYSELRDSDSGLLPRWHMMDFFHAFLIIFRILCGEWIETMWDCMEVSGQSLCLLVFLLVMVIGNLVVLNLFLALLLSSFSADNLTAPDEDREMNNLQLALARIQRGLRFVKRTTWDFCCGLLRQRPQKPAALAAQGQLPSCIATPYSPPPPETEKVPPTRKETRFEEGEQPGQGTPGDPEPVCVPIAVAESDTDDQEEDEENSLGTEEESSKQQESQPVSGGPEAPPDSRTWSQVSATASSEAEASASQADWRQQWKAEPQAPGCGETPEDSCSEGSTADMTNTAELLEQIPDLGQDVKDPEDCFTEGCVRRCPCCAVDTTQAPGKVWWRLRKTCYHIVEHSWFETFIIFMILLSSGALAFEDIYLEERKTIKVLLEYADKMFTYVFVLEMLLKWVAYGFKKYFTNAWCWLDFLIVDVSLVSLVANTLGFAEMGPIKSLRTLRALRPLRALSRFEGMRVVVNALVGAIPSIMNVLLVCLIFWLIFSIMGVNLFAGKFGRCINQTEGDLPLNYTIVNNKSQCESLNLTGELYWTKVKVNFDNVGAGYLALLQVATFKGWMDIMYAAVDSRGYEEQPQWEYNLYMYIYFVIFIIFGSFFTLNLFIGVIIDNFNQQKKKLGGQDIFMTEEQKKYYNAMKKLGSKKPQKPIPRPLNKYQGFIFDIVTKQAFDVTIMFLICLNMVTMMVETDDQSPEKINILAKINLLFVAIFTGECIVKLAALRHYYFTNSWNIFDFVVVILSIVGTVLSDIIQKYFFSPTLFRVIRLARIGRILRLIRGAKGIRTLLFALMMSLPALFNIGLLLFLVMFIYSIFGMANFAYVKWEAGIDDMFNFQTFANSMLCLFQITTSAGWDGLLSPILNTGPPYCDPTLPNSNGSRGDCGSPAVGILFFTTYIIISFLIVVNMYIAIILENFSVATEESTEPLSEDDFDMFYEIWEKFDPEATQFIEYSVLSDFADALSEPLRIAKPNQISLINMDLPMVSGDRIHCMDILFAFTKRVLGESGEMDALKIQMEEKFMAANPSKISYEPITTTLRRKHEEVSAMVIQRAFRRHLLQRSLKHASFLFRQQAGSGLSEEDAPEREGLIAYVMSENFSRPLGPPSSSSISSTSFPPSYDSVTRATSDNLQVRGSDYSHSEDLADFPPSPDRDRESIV

Regarding APWHLSSQYSRT [CTP], at NAV1.5 (SAFETYscan ion channel assay), the blocking or activation entry is “no significant blocking or activation”. Besides, at NAV1.5 (blocker, FLIPR Tetra, read-out: RC50 (the source's name)), the IC50 is above 30 µM. For the same sequence, the “significant interactions across all seventy-eight assays” value in data set [1] is “No significant activation or inhibition of any of seventy-eight protein channels was observed other than OPRM1 and COX2 at the highest tested concentration; also recorded: only two showed significant interactions”.
